± gives the standard deviation of the averaged measurements.
Test system: HepaRG
Assay: LDH release cytotoxicity, % of total lysis control; higher = more cytotoxic
Settings: 48 h
Outline: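 On collagen I-coated 96-well plates, single-lot HepaRG cells were exposed for 48 h, in duplicate, to eight-point half-log series of test chemicals beginning at 100 µM. The exposure medium was serum-free induction medium with 0.5% DMSO, and total lysis wells got 0.1% Triton X. Resorufin fluorescence from the CytoTox-ONE reaction, read on a Tecan Safire, reported LDH in 50 µL of spent medium. Percent cytotoxicity came from normalization to on-plate vehicle and total lysis controls, averaged over the duplicates.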

SMILES | LDH release cytotoxicity (0.1 µM) [%] | LDH release cytotoxicity (1 µM) [%] | LDH release cytotoxicity (3.16228 µM) [%] | LDH release cytotoxicity (10 µM) [%] | LDH release cytotoxicity (31.6228 µM) [%] | LDH release cytotoxicity (100 µM) [%] | LDH release cytotoxicity (0.03162 µM) [%] | LDH release cytotoxicity (0.3162278 µM) [%] | other results
O=[N+]([O-])C(Br)(CO)CO [Bronopol] | -3.38 ± 2.4 | -3.3 ± 0.87 | -3.31 ± 0.59 | -2.52 ± 1.9 | -0.61 ± 0.22 | 0.628 ± 0.21 |  |  | LDH release cytotoxicity (0.031623 µM): -1.83 ± 0.79%; LDH release cytotoxicity (0.316228 µM): -2.69 ± 1.3%
CC(C)(C)OOC(C)(C)CCC(C)(C)OOC(C)(C)C [2,5-Dimethyl-2,5-di-(tert-butylperoxy)hexane] | -0.939 ± 1 | -0.347 ± 0.56 | -0.34 ± 0.39 | -0.223 ± 0.53 | 1.22 ± 1.1 | 2.2 ± 1.6 | -1.07 ± 0.59 | -0.841 ± 0.2 | 
Nc1nc(=O)c2nc(CNc3ccc(C(=O)NC(CCC(=O)O)C(=O)O)cc3)cnc2[nH]1 (configuration not stated) [Folic acid] | -1.11 ± 0.044 | -1.1 ± 0.086 | -0.966 ± 0.064 | -0.672 ± 0.085 | -0.33 ± 0.12 | 1.64 ± 0.3 | -0.0941 ± 0.85 | -1.22 ± 0.067 | 
N#CSCSc1nc2ccccc2s1 [2-(Thiocyanomethylthio)benzothiazole] | -0.847 ± 0.58 | -0.646 ± 0.61 | 0.021 ± 0.2 | -0.312 ± 0.2 | -0.754 ± 0.77 | 1.03 ± 0.038 | -0.587 ± 0.32 | -0.155 ± 0.13 | 
O=c1ccc2ccccc2o1 [Coumarin] | -0.766 ± 1.4 | -1.992 ± 0.0095 | -1.12 ± 0.68 | -2.38 ± 1.8 | -0.666 ± 0.38 | 6.17 ± 9.2 | -1.09 ± 0.14 | -0.788 ± 0.28 | 
Cn1c(=O)c2[nH]cnc2n(C)c1=O [Theophylline] | -2.1 ± 0.29 | -1.74 ± 0.26 | -1.51 ± 0.33 | -1.15 ± 0.042 | -0.719 ± 0.16 | -0.479 ± 0.38 | -1.27 ± 0.97 | -1.54 ± 0.53 | 
CCC(=CC(N=O)C(N)=O)C(C)[N+](=O)[O-] (configuration not stated) | -1.13 ± 0.46 | -0.487 ± 0.72 | -0.165 ± 0.14 | 0.0592 ± 0.5 | 0.411 ± 0.23 | 1.12 ± 0.8 | -0.841 ± 0.13 | -0.143 ± 1 | 
O=[N+]([O-])c1ccc(Oc2ccc(Cl)cc2Cl)cc1 [Nitrofen] | -0.97 ± 0.56 | -0.821 ± 0.57 | -0.947 ± 1 | 0.734 ± 0.22 | 0.996 ± 0.67 | 3.046 ± 0.0066 | 0.322 ± 3 | -0.303 ± 0.48 | 
CN1CSC(=S)N(C)C1 [Dazomet] | -0.753 ± 0.32 | -1.86 ± 0.33 | -2.37 ± 0.28 | -3.44 ± 0.043 | 13.1 ± 2.2 | 78 ± 4.3 | -1.04 ± 1.2 | -1.34 ± 1.3 | 
O=C(OCCOCCOC(=O)c1ccccc1)c1ccccc1 [Diethylene glycol dibenzoate] | -1.337 ± 0.0031 | -1.03 ± 1.1 | -1.1 ± 0.042 | -0.826 ± 0.27 | -1.09 ± 0.2 | 0.38 ± 0.34 | -0.909 ± 1 | -0.774 ± 0.13 | 
CC1(C)NC(=O)N(c2ccc([N+](=O)[O-])c(C(F)(F)F)c2)C1=O | -2.02 ± 0.6 | -2.09 ± 0.12 | -2 ± 0.71 | -1.72 ± 0.061 | -1.66 ± 0.7 | -0.93 ± 0.35 | -1.893 ± 0.013 | -1.85 ± 0.036 | 
O=C(O)c1ccccc1C(c1ccc(O)cc1)c1ccc(O)cc1 [Phenolphthalin] | -1.91 ± 1.3 | -2.6 ± 0.41 | -1.53 ± 0.2 | -1.03 ± 0.2 | -1.15 ± 0.7 | 0.0929 ± 0.98 | -1.69 ± 0.25 | -2.15 ± 0.91 | 
COC(=O)C=C(C)OP(=O)(OC)OC [Mevinphos] | -1.28 ± 0.3 | -2.52 ± 0.67 | -2.16 ± 0.68 | -0.179 ± 0.88 | -1.3 ± 0.79 | 1.1 ± 2 | -1.49 ± 1.2 | -0.769 ± 1.7 | 
CCCCCCCCCC[N+](C)(C)[O-] [N,N-Dimethyldecylamine oxide] | -2.43 ± 1.6 | -2 ± 1.5 | -2.26 ± 0.2 | -2.07 ± 0.077 | -0.853 ± 1 | 1.25 ± 0.8 |  |  | LDH release cytotoxicity (0.031623 µM): -1.68 ± 1.2%; LDH release cytotoxicity (0.316228 µM): -2.73 ± 1.6%
Cc1cn(C2C=CC(CO)O2)c(=O)[nH]c1=O (configuration not stated) [Stavudine] | -0.277 ± 0.41 | 0.024 ± 0.42 | -0.127 ± 0.0047 | 0.3 ± 1.1 | 0.433 ± 0.49 | 2.36 ± 0.35 | -0.726 ± 0.35 | 0.0542 ± 0.56 | 
c1ccc2c(c1)Nc1ccccc1S2 [Phenothiazine] | -0.242 ± 0.75 | -2.16 ± 0.13 | -1.87 ± 0.84 | -1.1 ± 0.59 | 0.496 ± 0.65 | 3.43 ± 0.83 | -1.44 ± 0.67 | -1.08 ± 1 | 
CC(CO)OC(C)CO.CC(O)COCC(C)O (configuration not stated) [Dipropylene glycol] | -1.33 ± 0.44 | -2.46 ± 0.3 | -1.81 ± 0.92 | -1.07 ± 0.57 | -0.766 ± 1.3 | 1.27 ± 1.3 | -0.933 ± 0.81 | -1.72 ± 1.1 | 
CCC(C)(C)C1CCC(O)CC1 (configuration not stated) [4-(2-Methylbutan-2-yl)cyclohexanol] | -1.92 ± 0.13 | -1.82 ± 0.12 | -2.17 ± 0.41 | -1.05 ± 0.12 | -1.3 ± 0.32 | 0.0243 ± 0.8 | -0.419 ± 1.4 | -1.25 ± 0.17 | 
CCn1nc(Cc2ccccc2)cc1C1CCN(CC2CC(N(C)C(C(=O)O)C(C)C)CC2c2cccc(F)c2)CC1 (configuration not stated) [MK-578] | -1.8 ± 0.42 | -2.168 ± 0.0097 | -2.16 ± 0.039 | -1.47 ± 0.29 | -1.08 ± 0.3 | 9.55 ± 0.94 | -1.06 ± 0.49 | -1.85 ± 0.13 | 
CCCC(=O)O [Butanoic acid] | -0.77 ± 0.36 | -1.47 ± 0.67 | -0.676 ± 0.53 | -0.93 ± 0.85 | -0.26 ± 0.0066 | -0.235 ± 0.085 | 0.168 ± 0.2 | -0.76 ± 0.38 | 
Oc1ccc2c(c1)-c1ccccc1C2 [3-Hydroxyfluorene] | -1.06 ± 0.48 | -1.04 ± 0.052 | -0.932 ± 0.52 | -0.0118 ± 0.39 | 0.438 ± 0.78 | 3.69 ± 1.1 | -1.48 ± 0.74 | -0.414 ± 0.17 | 
O=C(NC(c1ccccc1)C1CCCCN1)c1cccc(C(F)(F)F)c1Cl (configuration not stated) | -1.57 ± 0.071 | -1.79 ± 0.54 | -0.61 ± 1.2 | 0.734 ± 0.85 | 24.2 ± 1.3 | 86.2 ± 3.2 | -1.29 ± 1.3 | -0.0611 ± 0.068 | 
CCOC1Oc2ccc(OS(C)(=O)=O)cc2C1(C)C (configuration not stated) [Ethofumesate] | -1.58 ± 2.8 | -3.38 ± 0.38 | -2.65 ± 1.5 | -3.76 ± 1.5 | -3.45 ± 0.47 | 12.4 ± 2.7 |  |  | LDH release cytotoxicity (0.031623 µM): -1.31 ± 0.47%; LDH release cytotoxicity (0.316228 µM): -1.7 ± 0.31%
CS(=O)(=O)OCCCCOS(C)(=O)=O [Busulfan] | -0.871 ± 0.9 | -2.08 ± 0.32 | -1.19 ± 0.19 | -0.461 ± 0.33 | 0.385 ± 0.76 | 0.593 ± 0.42 | -1.48 ± 0.87 | -1.32 ± 0.64 | 
COCCOCC(CC1(C(=O)NC2CCC(C(=O)O)CC2)CCCC1)C(=O)Oc1ccc2c(c1)CCC2 (configuration not stated) [Candoxatril] | -1.91 ± 0.43 | -1.61 ± 0.11 | -1.03 ± 0.12 | -0.79 ± 0.29 | -0.798 ± 0.39 | 0.54 ± 0.26 | -0.831 ± 0.098 | -0.642 ± 0.1 | 
COc1cc2c(c(OC)c1OC)-c1ccc(OC)c(=O)cc1C(NC(C)=O)CC2 (configuration not stated) [Colchicine] | 7.47 ± 1.3 | 10.1 ± 2.2 | 11.5 ± 4.3 | 10.1 ± 0.93 | 7.72 ± 1.5 | 5.064 ± 0.022 |  |  | LDH release cytotoxicity (0.031623 µM): 2.9 ± 1.9%; LDH release cytotoxicity (0.316228 µM): 10.8 ± 1.7%
COc1ccc(C(c2ccc(OC)cc2)C(Cl)(Cl)Cl)cc1 [Methoxychlor] |  |  |  |  |  |  |  |  | LDH release cytotoxicity (0.0314647 µM): -0.145 ± 0.82%; LDH release cytotoxicity (0.0995 µM): -0.434 ± 1.2%; LDH release cytotoxicity (0.3146466 µM): -0.0516 ± 0.38%; LDH release cytotoxicity (0.995 µM): 0.115 ± 0.092%; LDH release cytotoxicity (3.14647 µM): 0.0841 ± 0.19%; LDH release cytotoxicity (9.95 µM): -0.153 ± 0.2%; LDH release cytotoxicity (31.4647 µM): 0.12 ± 0.78%; LDH release cytotoxicity (99.5 µM): 17 ± 0.64%
CSC(=O)c1c(C(F)F)nc(C(F)(F)F)c(C(=O)SC)c1CC(C)C [Dithiopyr] |  |  |  |  |  |  |  |  | LDH release cytotoxicity (0.0140721 µM): -1.51 ± 2.5%; LDH release cytotoxicity (0.0445 µM): -2.25 ± 0.63%; LDH release cytotoxicity (0.1407214 µM): -2.63 ± 0.43%; LDH release cytotoxicity (0.445 µM): -3.81 ± 0.56%; LDH release cytotoxicity (1.4072136 µM): -3.84 ± 0.3%; LDH release cytotoxicity (4.45 µM): -5.82 ± 2.5%; LDH release cytotoxicity (14.072136 µM): -1.76 ± 2.3%; LDH release cytotoxicity (44.5 µM): -1.31 ± 1.6%
COc1c(Cl)ccc(Cl)c1C(=O)O [Dicamba] | -1.52 ± 0.043 | -2.09 ± 0.64 | -0.996 ± 0.75 | -0.906 ± 0.014 | -0.688 ± 0.24 | 0.691 ± 0.52 | -2.43 ± 1.4 | -0.804 ± 0.36 | 

From the supplement of paper PMC7840683
